# ChEMBL document CHEMBL1201862, “PubChem BioAssay data set” (2004)
# “And” between values parts separate entries of the source, which are not always exact repeats. Equal entries are not always repeated. The source made the active and inactive calls.
# Key:
# Cytochrome P450 2C19 = Cytochrome P450 2C19 (Homo sapiens, UniProt P33261); assay: Cytochrome panel assay with activity outcomes. Panel member name: p450-cyp2c19 Compounds with AC50 equal or less than 10 uM are considered active; format: functional
# Cytochrome P450 2C9 = Cytochrome P450 2C9 (Homo sapiens, UniProt P11712)
# Cytochrome P450 1A2 = target: T1, Cytochrome P450 1A2 (Homo sapiens, UniProt P05177);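 also: PubChem cytochrome P450 panel assay, CYP1A2 panel member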
# T1 sequence (P05177 whole entry): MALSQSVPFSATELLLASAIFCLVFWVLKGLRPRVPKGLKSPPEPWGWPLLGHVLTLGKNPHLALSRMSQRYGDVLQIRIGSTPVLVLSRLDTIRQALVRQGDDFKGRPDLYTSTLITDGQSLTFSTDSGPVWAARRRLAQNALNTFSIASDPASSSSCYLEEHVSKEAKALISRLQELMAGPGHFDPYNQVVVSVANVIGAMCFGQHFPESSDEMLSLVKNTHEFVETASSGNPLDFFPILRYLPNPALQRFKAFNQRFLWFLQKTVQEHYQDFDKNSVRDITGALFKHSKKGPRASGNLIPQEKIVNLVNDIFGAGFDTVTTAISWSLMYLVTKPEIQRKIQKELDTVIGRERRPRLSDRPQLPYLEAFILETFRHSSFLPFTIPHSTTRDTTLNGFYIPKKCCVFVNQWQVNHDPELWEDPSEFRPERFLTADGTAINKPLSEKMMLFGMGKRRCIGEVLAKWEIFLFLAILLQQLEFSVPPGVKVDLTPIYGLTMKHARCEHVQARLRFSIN
# [1] = target: T2, Corticotropin-releasing factor receptor 2/Corticotropin-releasing factor-binding protein (Homo sapiens, UniProt P24387+Q13324); assay: activators of CRF receptor 2 with binding protein – uHTS hits, confirmation (AID 602473); format: functional; conditions: read-out: EC50_Mean
# T2 sequence (Q13324 whole entry): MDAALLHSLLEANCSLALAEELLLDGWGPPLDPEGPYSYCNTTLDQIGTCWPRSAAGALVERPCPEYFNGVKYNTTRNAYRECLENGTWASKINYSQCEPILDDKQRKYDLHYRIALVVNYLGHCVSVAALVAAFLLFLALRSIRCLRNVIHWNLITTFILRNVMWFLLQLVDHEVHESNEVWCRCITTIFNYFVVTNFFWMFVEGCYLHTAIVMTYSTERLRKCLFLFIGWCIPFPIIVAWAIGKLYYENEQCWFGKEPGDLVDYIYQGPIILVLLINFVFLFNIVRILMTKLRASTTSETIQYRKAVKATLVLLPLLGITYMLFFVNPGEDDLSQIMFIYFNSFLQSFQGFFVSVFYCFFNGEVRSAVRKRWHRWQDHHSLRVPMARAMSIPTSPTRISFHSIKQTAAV
# T2 sequence (P24387 whole entry): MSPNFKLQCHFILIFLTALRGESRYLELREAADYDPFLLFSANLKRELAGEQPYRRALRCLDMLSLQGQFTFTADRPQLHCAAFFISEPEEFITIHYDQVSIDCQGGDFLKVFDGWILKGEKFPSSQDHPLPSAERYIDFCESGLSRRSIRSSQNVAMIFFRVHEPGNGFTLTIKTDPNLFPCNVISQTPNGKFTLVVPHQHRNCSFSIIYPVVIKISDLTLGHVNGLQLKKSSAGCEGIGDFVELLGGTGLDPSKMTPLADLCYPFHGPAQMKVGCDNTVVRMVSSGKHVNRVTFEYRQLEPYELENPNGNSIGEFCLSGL
# [2] = inhibitors of intracellular T. cruzi replication, confirmation, NIH3T3 host cells, beta-gal luminescence (AID 2044); format: functional, cell-based;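 also: intracellular parasites grown in NIH/3T3 mouse fibroblasts as host cells; luminescent beta-galactosidase reporter signal from transgenic T. cruzi replicating inside host cells; inhibitors lower the luminescence signal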
# [3] = cytotoxicity toward NIH3T3 fibroblasts, dose response, counter-screen, cell-based, ATP luminescence, mouse fibroblasts (AID 2010); format: functional;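 also: cells exposed to compound for about 90 hours before reading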
# [4] = Luminescence Cell-Based Dose Confirmation HTS to Identify Activators of 5'UTR Stem-Loop Driven Alpha-Synuclein mRNA Translation in H4 Neuroglioblastoma Cells. [Related pubchem assays: 1829 (Project Summary), 1814 (Primary HTS)]; format: functional
# [5] = Luminescence Cell-Based Dose Response HTS to Identify Activators of Luciferase Translation or Activity in H4 […] Cells. [Related pubchem assays: 1829 (Project Summary), 1814 (Primary HTS)]; format: functional
# H4 = assay: Luminescence Cell-Based Dose Response HTS to Identify Activators of 5'UTR Stem-Loop Driven Prion Protein mRNA Translation in H4 Neuroglioblastoma Cells. [Related pubchem assays: 1829 (Project Summary), 1814 (Primary HTS)]; format: functional; conditions: Homo sapiens
# Sequence of Cytochrome P450 2C19 (P33261 whole entry): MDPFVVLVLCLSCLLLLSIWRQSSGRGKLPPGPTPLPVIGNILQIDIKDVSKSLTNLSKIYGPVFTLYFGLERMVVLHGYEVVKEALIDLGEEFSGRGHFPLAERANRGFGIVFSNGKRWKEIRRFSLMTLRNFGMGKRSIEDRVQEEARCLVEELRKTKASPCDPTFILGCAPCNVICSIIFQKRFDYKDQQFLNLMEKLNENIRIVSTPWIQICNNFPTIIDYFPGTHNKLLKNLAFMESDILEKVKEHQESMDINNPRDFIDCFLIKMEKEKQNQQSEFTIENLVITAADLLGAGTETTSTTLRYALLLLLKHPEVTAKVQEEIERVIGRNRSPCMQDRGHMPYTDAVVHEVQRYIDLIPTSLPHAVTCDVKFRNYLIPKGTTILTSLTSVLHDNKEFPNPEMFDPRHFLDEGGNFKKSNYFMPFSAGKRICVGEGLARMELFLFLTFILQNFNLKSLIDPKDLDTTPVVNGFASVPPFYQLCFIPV
# Sequence of Cytochrome P450 2C9 (P11712 whole entry): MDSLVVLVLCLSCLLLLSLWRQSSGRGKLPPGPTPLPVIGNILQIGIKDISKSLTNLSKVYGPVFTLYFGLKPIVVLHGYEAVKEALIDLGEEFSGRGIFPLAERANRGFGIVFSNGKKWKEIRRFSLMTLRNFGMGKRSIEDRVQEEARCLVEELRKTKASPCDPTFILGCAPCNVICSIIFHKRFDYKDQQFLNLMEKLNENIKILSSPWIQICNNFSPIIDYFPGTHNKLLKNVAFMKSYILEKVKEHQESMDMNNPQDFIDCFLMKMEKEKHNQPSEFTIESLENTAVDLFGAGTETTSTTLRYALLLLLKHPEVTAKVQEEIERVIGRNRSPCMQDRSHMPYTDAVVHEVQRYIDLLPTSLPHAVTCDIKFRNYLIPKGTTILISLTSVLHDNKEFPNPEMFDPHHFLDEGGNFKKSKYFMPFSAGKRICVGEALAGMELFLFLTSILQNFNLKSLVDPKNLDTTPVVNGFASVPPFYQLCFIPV
smiles,measurement,setting,value
O=C(Nc1ccccc1)N1CCOCC1,AC50,Cytochrome P450 2C19; read-out: AC50,31.6 µM (inconclusive)
same,AC50,Cytochrome P450 2C9,0.562 µM (inconclusive)
Cc1ccc(-c2ccc(CCC(=O)O)o2)cc1,AC50,Cytochrome P450 1A2,25.1 µM (inconclusive)
Cc1cccc(C)c1N1CCN(S(=O)(=O)N2CCCCC2)CC1,EC50,[1],5.58 µM (active)
COc1ccc(N(CC(=O)O)N=O)cc1,AC50,Cytochrome P450 2C19,inconclusive
same,AC50,Cytochrome P450 1A2,0.0251 µM (inconclusive)
COc1ccc(Cn2nnnc2C(c2ccccn2)N2CCN(c3cc(Cl)ccc3C)CC2)cc1 (stereo not given),EC50,[2],2.04 µM (active)
same,EC50,[3],> 60 µM (not active)
CCN1C(=S)SC(=O)C1=C1C=C(C)N(CCO)C(C)=C1,EC50,[4],0.102 µM (active)
COc1ccc(C2=CC(c3cccc(OC)c3)n3nnnc3N2)cc1 (stereo not given),EC50,[1],> 53 µM (inactive)
Cn1cc(-c2nc3cnc(Oc4ccccc4)nc3n(C)c2=O)c2ccccc21,AC50,Cytochrome P450 1A2,12.6 µM (inconclusive)
COc1cc(=O)n(C)c2c(OC[C@@H](O)C(C)(C)O)cccc12,AC50,Cytochrome P450 1A2,20 µM (inconclusive) and 12.6 µM (inconclusive)
CN(Cc1ccco1)c1ncnc2ccc(-c3ccc4c(c3)OCO4)cc12,AC50,Cytochrome P450 2C9,1.26 µM (inconclusive)
COC(=O)Cn1ncn2c(cc3oc(C)cc32)c1=O,EC50,[4],2.68 µM (active)
same,EC50,[5],56 µM (active)
same,EC50,H4,14.7 µM (active)
COc1cccc2nc(O)c(-c3ccccc3)cc12,EC50,[4],9.22 µM (active)
same,EC50,[5],8.86 µM (active)
CN1CCN(NC(=O)Nc2cccc(Cl)c2Cl)CC1,EC50,[2],0.184 µM (active)
same,EC50,[3],> 60 µM (not active)
Cc1cc(C)c(C(=O)Cn2cnc3cc([N+](=O)[O-])ccc3c2=O)cc1C,EC50,[2],1.61 µM (active)
same,EC50,[3],> 60 µM (not active)
COc1ccc(C(=O)NCC(=O)N2CCN(C(=O)c3ccco3)CC2)cc1,EC50,[1],> 53 µM (inactive)
COc1ccc([N+](=O)[O-])c2c1CCN2C(=O)CC[C@H](N)C(=O)O,AC50,Cytochrome P450 1A2,31.6 µM (inconclusive)
O=C(c1ccc(Cl)cc1)C1CCCN(Cc2cccn2-c2cccnc2)C1 (stereo not given),EC50,[2],2.58 µM (active)
same,EC50,[3],> 60 µM (not active)
O=C(c1ccc2nc3ccc(Cl)cc3c(=O)n2c1)N1CCOCC1,AC50,Cytochrome P450 1A2,14.1 µM (inconclusive)
CCNc1ncc2nc(-c3cccs3)c(=O)n(-c3ccccc3)c2n1,AC50,Cytochrome P450 1A2,1.58 µM (inconclusive)
COc1ccccc1CNc1ccnc(-c2ccoc2)n1,AC50,Cytochrome P450 2C9,1.26 µM (inconclusive)
COc1ccc(N(CC(=O)NCCC2=CCCCC2)S(=O)(=O)c2ccc(C)cc2)cc1,EC50,[2],2.31 µM (active)
same,EC50,[3],> 30 µM (not active)
O=C(CCc1nnc(C2CCCCC2)o1)N1CCN(c2ccccc2F)CC1,EC50,[4],9.13 µM (active)
same,EC50,[5],11.8 µM (active)
COc1ccc(CN2CCn3ncc(C(=O)Nc4ccccc4)c3C2=O)cc1,EC50,[4],14.2 µM (active)
same,EC50,[5],66.6 µM (active)
same,EC50,H4,18.9 µM (inconclusive)
Cc1ccc(NC(=O)C2CCN(c3cnccn3)CC2)cc1,EC50,[2],0.9 µM (active)
same,EC50,[3],> 60 µM (not active)
Cc1c(NC2=N/C(=N\C(=O)c3cccs3)c3ccccc32)c(=O)n(-c2ccccc2)n1C,EC50,[1],5.98 µM (active)
Cc1cc(NS(=O)(=O)c2ccc(NC(=O)c3cccc(OC(F)F)c3)cc2)nc(C)n1,EC50,[1],> 53 µM (inactive)
CCOCCCN1CC(C(=O)NCCc2ccc(C)cc2)CC1=O (stereo not given),AC50,Cytochrome P450 2C19; read-out: AC50,25.1 µM (inconclusive)
Cc1cc(C)n(CCc2nc(-c3cc4ccccc4o3)cs2)n1,EC50,[4],7.17 µM (active)
same,EC50,[5],9.04 µM (active)
same,EC50,H4,60.2 µM (active)
O=C(CCl)NN1C(=O)NC(c2ccccc2)(c2ccccc2)C1=O,EC50,[4],13.1 µM (active)
same,EC50,[5],> 120 µM (not active)
same,EC50,H4,> 120 µM (not active)
C=CC(=O)NC(C)(C)Cc1ccccc1,AC50,Cytochrome P450 2C9,10 µM (inconclusive)
Cc1c(C)n(CCCN(C)C)c2ncnc(NCc3ccccc3)c12,EC50,[2],0.911 µM (active)
same,EC50,[3],> 60 µM (not active)
CCOc1ccc2nc(O)c(CN(CCc3ccccc3)C(=O)N3CCOCC3)cc2c1,AC50,Cytochrome P450 1A2,17.8 µM (inconclusive)
COc1ccc(N2C(=O)CCC(C(=O)Nc3ccccn3)C2c2ccc(OC)c(OC)c2)cc1 (stereo not given),AC50,Cytochrome P450 2C9,3.16 µM (inconclusive)
CCc1nnc(NC(=O)CSc2nc(C3CCCCC3)nc3ccccc23)s1,AC50,Cytochrome P450 2C19; read-out: AC50,5.01 µM (inconclusive)
same,AC50,Cytochrome P450 2C9,3.55 µM (inconclusive)
O=C(/C=C/c1ccco1)NCCc1ccccc1,EC50,[4],10.9 µM (active)
same,EC50,[5],14.5 µM (active)
same,EC50,H4,> 120 µM (not active)
CCOc1ccc(NC(=O)c2ccc(Br)o2)c([N+](=O)[O-])c1,AC50,Cytochrome P450 1A2,3.55 µM (inconclusive)
O=[N+]([O-])c1ccc(-[n+]2c(-c3ccccc3)cc(-c3ccccc3)cc2-c2ccccc2)cc1.[O-][Cl+3]([O-])([O-])[O-],EC50,[2],0.264 µM (active)
same,EC50,[3],> 60 µM (not active)
same,EC50,[1],5.02 µM (active)
CN1CCc2c(sc3c2C(=O)NC(c2cccc(OC(=O)c4cccs4)c2)N3)C1 (stereo not given),EC50,[4],6.46 µM (active)
same,EC50,[5],8.11 µM (active)
same,EC50,H4,40 µM (active)
O=C(Nc1ncc(S(=O)(=O)c2ccc([N+](=O)[O-])cc2)s1)c1ccccc1F,EC50,[1],4.81 µM (active)
O=c1c2c3c(sc2nc2n1N=C(c1cccs1)CS2)CCCC3,EC50,H4,0.118 µM (active)
COc1ccc(C(=O)NCCn2ccc3ccccc32)cc1,EC50,[4],0.185 µM (active)
same,EC50,[5],0.132 µM (active)
same,EC50,H4,0.488 µM (active)
CCOC(=O)CSc1nc(N2CCOCC2)c2c(c1C#N)CC(C)(C)N(C)C2,EC50,[1],> 53 µM (inactive)
CC1(C)CN=C(N(Cc2ccccc2)C(=O)Nc2ccccc2)S1,EC50,[4],12.5 µM (active)
same,EC50,[5],13.1 µM (active)
same,EC50,H4,18.8 µM (active)
CC(=O)c1ccc(S(=O)(=O)N(Cc2cc3cc4c(cc3nc2O)OCCO4)CC2CCCO2)cc1 (stereo not given),EC50,[4],13.6 µM (active)
same,EC50,[5],6.68 µM (active)
same,EC50,H4,26.3 µM (active)
CCCc1cc2c(cc1NC(=O)c1ccccc1C)OCO2,AC50,Cytochrome P450 2C9,0.0562 µM (inconclusive)
NC(=O)N/N=C\c1ccc([N+](=O)[O-])o1,AC50,Cytochrome P450 1A2,12.6 µM (inconclusive)
Cc1nc2ncnn2c(C)c1CCC(=O)NC(C)c1ccc2c(c1)OCCO2 (stereo not given),AC50,Cytochrome P450 2C19; read-out: AC50,8.91 µM (inconclusive)
Fc1ccccc1OCCSc1[nH]cnc2ncnc1-2,EC50,[4],> 120 µM (not active)
same,EC50,[5],13 µM (active)
same,EC50,H4,14.9 µM (active)
Cc1ccc(-n2c(=O)[nH]cc(C(=O)N3CCc4ccccc43)c2=O)cc1,AC50,Cytochrome P450 2C9,1 µM (inconclusive)
Cc1nnc(O)n1-c1cccc(C(F)(F)F)c1,AC50,Cytochrome P450 1A2,5.62 µM (inconclusive)
O=C(N/N=C/c1ccc([N+](=O)[O-])cc1)c1ccc(COc2ccccc2-c2ccccc2)cc1,EC50,[2],1.55 µM (active)
same,EC50,[3],> 30 µM (not active)
COc1cc(/C=N/NC2=NC(=O)C(CC(=O)O)S2)ccc1OCc1cccc(Cl)c1 (stereo not given),EC50,[4],6.12 µM (active)
same,EC50,[5],10.1 µM (active)
same,EC50,H4,19.7 µM (active)
Cc1cccc2c1OCC/C2=N\NC(=O)COc1ccccc1Cl,AC50,Cytochrome P450 2C19; read-out: AC50,0.708 µM (inconclusive)
O=C1C=C(c2ccc3[nH]ccc3c2)CCC1,EC50,[4],16 µM (active)
same,EC50,[5],46.4 µM (active)
same,EC50,H4,9.94 µM (active)
Cc1ccc(NCc2ccccc2)cc1 [N-BENZYL-4-METHYLANILINE],EC50,[2],5.25 µM (active)
same,EC50,[3],> 60 µM (not active)
